Measurements as given in ChEMBL document CHEMBL3817829, “Spirooxindoles as novel 3D-fragment scaffolds: Synthesis and screening against CYP121 from M. tuberculosis” (Bioorg Med Chem Lett, 2016).

Columns and labels:
[1] = Solubility of compound in 50 mM Tris-Hcl/1mM EDTA at 1 mM at pH 7.5; assay type: physicochemical; conditions: buffer, pH 7.5, 1000 µM
Mycocyclosin synthase [2] = molecular target: T1, Mycocyclosin synthase (Mycobacterium tuberculosis, UniProt P9WPP7); assay: Binding affinity to Mycobacterium tuberculosis recombinant His6-tagged CYP121 expressed in Escherichia coli C41(DE3) cells assessed as change in wavelength of heme soret band at 1 mM by UV-visible spectrophotometric method; conditions: 1000 µM
T1 sequence (P9WPP7 whole entry): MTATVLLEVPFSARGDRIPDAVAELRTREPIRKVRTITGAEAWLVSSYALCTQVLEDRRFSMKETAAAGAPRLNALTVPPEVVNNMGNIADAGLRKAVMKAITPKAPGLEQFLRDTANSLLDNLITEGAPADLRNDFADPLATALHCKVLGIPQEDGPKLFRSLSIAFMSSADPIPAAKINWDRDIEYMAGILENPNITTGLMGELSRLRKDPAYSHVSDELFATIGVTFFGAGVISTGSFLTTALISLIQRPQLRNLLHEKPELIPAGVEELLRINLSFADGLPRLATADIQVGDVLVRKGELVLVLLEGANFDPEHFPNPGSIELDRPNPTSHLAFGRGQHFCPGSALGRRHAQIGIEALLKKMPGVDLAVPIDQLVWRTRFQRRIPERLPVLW

Mycocyclosin synthase [3] = molecular target: T1, Mycocyclosin synthase; assay: Binding affinity to Mycobacterium tuberculosis recombinant His6-tagged CYP121 expressed in Escherichia coli C41(DE3) cells by isothermal titration calorimetry

Compound	solubility [1]	Activity (Mycocyclosin synthase [2])	Kd (Mycocyclosin synthase [3]) [µM]
CCOC(=O)/C=C1/C(=O)Nc2ccccc21	soluble	0 nm	
CCOC(=O)/C=C1/C(=O)Nc2ccc(F)cc21	soluble	0 nm	
CCOC(=O)/C=C1/C(=O)Nc2ccc(Cl)cc21	Insoluble	ND(Insoluble)	
CCOC(=O)[C@@H]1[C@@H]2C=C[C@@H](C2)[C@@]12C(=O)Sc1ccccc12	soluble	0 nm	
N#CCC1C(=O)Nc2ccccc21 (configuration not stated)	soluble	0 nm	
CN1C(=O)C(CC#N)c2ccccc21 (configuration not stated)	soluble	0 nm	
CCOC(=O)[C@H]1[C@@H]2C=C[C@@H](C2)[C@]12C(=O)N(C(C)=O)c1ccccc12	soluble	0 nm	
N#C/C=C1/C(=O)Nc2ccc(OC(F)(F)F)cc21	soluble	0 nm	
CCOC(=O)CC1C(=O)Nc2ccc(OC(F)(F)F)cc21 (configuration not stated)	soluble	0 nm	
CCOC(=O)[C@H]1[C@@H]2C=C[C@@H](C2)[C@]12C(=O)Sc1ccccc12	soluble	-1 nm	
CCOC(=O)[C@H]1[C@@H]2C=C[C@@H](C2)[C@]12C(=O)Nc1ccc(OC(F)(F)F)cc12	soluble	0 nm	
N#C/C=C1/C(=O)Nc2ccccc21	soluble	0 nm	
CCOC(=O)[C@@H]1[C@@H]2C=C[C@@H](C2)[C@@]12C(=O)Oc1ccccc12	soluble	0 nm	
CCOC(=O)[C@@H]1[C@@H]2C=C[C@@H](C2)[C@@]12C(=O)Nc1ccc(OC(F)(F)F)cc12	soluble	0 nm	
Nc1ccc2nccc(-n3cncn3)c2c1		3 nm	28
N#CCC1C(=O)Nc2ccc(OC(F)(F)F)cc21 (configuration not stated)	soluble	-2 nm	
CCOC(=O)[C@@H]1[C@@H]2C=C[C@@H](C2)[C@@]12C(=O)N(C)c1ccccc12	soluble	0 nm	
CCOC(=O)/C=C1/C(=O)Sc2ccccc21	soluble	0 nm	
CCOC(=O)CC1C(=O)Oc2ccccc21 (configuration not stated)	soluble	0 nm	
CCOC(=O)[C@@H]1[C@@H]2C=C[C@@H](C2)[C@@]12C(=O)Nc1ccc(F)cc12	soluble	0 nm	
CCOC(=O)/C=C1/C(=O)N(C)c2ccccc21	soluble	0 nm	

Compound	solubility [1]	Activity (Mycocyclosin synthase [2])	Kd (Mycocyclosin synthase [3]) [µM]
N#C[C@@H]1[C@@H]2C=C[C@@H](C2)[C@@]12C(=O)Nc1ccccc12	soluble	0 nm	
CCOC(=O)[C@H]1[C@@H]2C=C[C@@H](C2)[C@]12C(=O)Nc1ccc(Cl)cc12	soluble	-1 nm	
CCOC(=O)/C=C1/C(=O)Nc2ccc([N+](=O)[O-])cc21	Insoluble	ND(Insoluble)	
CCOC(=O)[C@H]1[C@@H]2C=C[C@@H](C2)[C@]12C(=O)Nc1ccccc12	soluble	0 nm	
CCOC(=O)[C@H]1[C@@H]2C=C[C@@H](C2)[C@]12C(=O)N(C)c1ccccc12	soluble	-2 nm	
CCOC(=O)/C=C1/C(=O)Oc2ccccc21	soluble	-1 nm	
CCOC(=O)[C@@H]1[C@@H]2C=C[C@@H](C2)[C@@]12C(=O)N(C(C)=O)c1ccccc12	soluble	0 nm	
CCOC(=O)[C@@H]1[C@@H]2C=C[C@@H](C2)[C@@]12C(=O)Nc1ccc(Cl)cc12	soluble	0 nm	
CCOC(=O)/C=C1/C(=O)Nc2ccc(OC(F)(F)F)cc21	soluble	0 nm	
CCOC(=O)[C@H]1[C@@H]2C=C[C@@H](C2)[C@]12C(=O)Nc1ccc(F)cc12	soluble	0 nm	
CN1C(=O)/C(=C/C#N)c2ccccc21	soluble	0 nm	
N#C[C@H]1[C@@H]2C=C[C@@H](C2)[C@]12C(=O)Nc1ccccc12	soluble	0 nm	
CCOC(=O)CC1C(=O)Nc2ccc(F)cc21 (configuration not stated)	soluble	0 nm	
CCOC(=O)[C@H]1[C@@H]2C=C[C@@H](C2)[C@]12C(=O)Oc1ccccc12	soluble	-1 nm	
CCOC(=O)CC1C(=O)Nc2ccc(Cl)cc21 (configuration not stated)	soluble	0 nm	
CCOC(=O)/C=C1/C(=O)N(C(C)=O)c2ccccc21	soluble	0 nm	
CCOC(=O)[C@@H]1[C@@H]2C=C[C@@H](C2)[C@@]12C(=O)Nc1ccccc12	soluble	-1 nm	
N#CC1[C@@H]2C=C[C@@H](C2)C12C(=O)Nc1ccccc12 (mixture of isomers)	soluble	0 nm	
N#CC1[C@@H]2C=C[C@@H](C2)C12C(=O)Nc1ccc(OC(F)(F)F)cc12 (mixture of isomers)	soluble	0 nm	
CCOC(=O)C1[C@@H]2C=C[C@@H](C2)C12C(=O)Nc1ccc([N+](=O)[O-])cc12 (mixture of isomers)	Insoluble	ND(Insoluble)	
